Test system: nursery pigs
Test: Chromium supplementation feeding study in nursery pigs (growth performance)
Assay type: in vivo
Conditions: diet with 400 ppb chromium
Text: A study was made to determine the effects of chromium leather hydrolysate supplementation in nursery pigs, as compared with other complexes, namely chromium picolinate and a yeast chromium complex. In this study, three groups of forty pigs each, with a mean weaning age of 17.6 days, were fed diets containing the chromium leather hydrolysate proteinate, chromium tripicolinate, or yeast chromium complex. In addition, a control group of forty pigs were not fed a supplement. In all cases, the chromium containing complex contained 400 ppb of chromium. Data relating to the average daily gains were obtained over three phases with Phase I being 0-7 days, Phase II being 8-14 days, and Phase III being 15-21 days.
In the above Table, ADG is “average daily gain” and ADFI is “average daily feed intake”.

chromium tripicolinate [Chromium picolinate]
ADFI (average daily feed intake) (Phase I, 0-7 days): 545 gms | ADG (average daily gain) (Phase I, 0-7 days): 250 gms | Gain/Feed (Phase I, 0-7 days): 0.54 | ADFI (average daily feed intake) (Phase II, 8-14 days): 1.43 kg | ADG (average daily gain) (Phase II, 8-14 days): 0.92 kg | Gain/Feed (Phase II, 8-14 days): 0.67 | ADFI (average daily feed intake) (Phase III, 15-21 days): 2.61 | ADG (average daily gain) (Phase III, 15-21 days): 1.26 kg | Gain/Feed (Phase III, 15-21 days): 0.48
